# Values of other authors in patent US10344017B2, “Pyrrolcarboxamide derivatives for the inhibition of ERK5” (CANCER RESEARCH TECHNOLOGY LIMITED, priority 2014, dated 2019).
# Legend:
# [1] = test system: tumour cell lines and endothelial cells; conditions: cited from earlier work
# human and murine tumour = conditions: cited from earlier work
# [2] = cited from earlier work
# [3] = test system: bFGF-induced angiogenesis; conditions: matrigel plug; cited from earlier work
smiles,measurement,setting,value
CCOc1cc(N2CCC(O)CC2)ccc1Nc1ncc2c(n1)N(C)c1ccccc1C(=O)N2C [XMD8-92],anti-proliferative activity,[1],modest anti-proliferative activity
same,tumour growth,human and murine tumour; human and murine tumours in mice,pronounced retardation of both human and murine tumour growth
same,inhibition of tumour ERK5,human and murine tumour; mice,inhibited tumour ERK5
same,tolerability in mice,[2],well tolerated
same,blood vessel formation,[3],completely abrogated blood vessel formation
